3 molecules from patent EP4560029A1, “METHOD FOR THE DIAGNOSIS OF ANEURYSM, AND INHIBITORS FOR USE IN THE PREVENTION OR TREATMENT OF ANEURYSM” (Fundacion Instituto De Investigacion Sanitaria Fundacion …, priority 2023, dated 2025) can be followed below.

Experiment [1] concerns shFbn1-VSMCs. As to the kind of experiment: ISRIB incubation of Fbn1-silenced primary VSMCs: qPCR. It is filed as cell-based, murine. The note with it: ISRIB incubation for 48h. The procedure:
Isolation and culture of primary mouse VSMCs were previously described. Tissue was digested with a solution of collagenase and elastase (Worthington Biochem) until a single-cell suspension was obtained. All experiments with primary VSMCs were performed during passages 2-7. Lentiviral transduction was performed in VSMCs over 5 h at a multiplicity of infection = 3. The medium was then replaced with fresh DMEM supplemented with 10% FBS and cells were cultured for five more days, treated with NR for five more days and serum-starved for 16h. […]
The GFPT2 and GFP coding sequence was obtained from Origene. […] Transduction efficiency (GFP-expressing cells and Puromycin resistant-cells) and cell death (propidium iodide staining) were quantified by flow cytometry.
Aortas were extracted after perfusion with 5 ml saline solution, and the adventitia layer was discarded. […] The amount of target mRNA in samples was estimated by the 2-CT relative quantification method, using B2M, YWHAZ and PP1A for normalization. Fold ratios were calculated relative to mRNA expression levels from controls.
ISR is a decisive cell response pathway that controls translation and bases a protective response and drive a transcriptional program to maintain and to contribute to organismal fitness. […] First, the inventors evaluated the ISRIB (an ISR-inhibitor) in MFS in vitro. […]

Experiment [2] concerns Fbn1^C1039G/+ mice. As to the kind of experiment: ISRIB by osmotic minipumps in Marfan mouse model: aortic ultrasound, blood pressure. The note with it: 28 days, to normal levels. It is filed as in vivo. The method, then:
(§1) Marfan mouse model which harbor a Fbn1^C1039G/+ allele (JAX stock #012885). Wild-type littermates were used as controls for Marfan mice. DON dissolved in saline, (Sigma-Aldrich), at 5 ng* kg^-1 min^-1 and ISRIB (MedChemExpress) at 10mg* kg^-1 min^-1 were infused using subcutaneous osmotic minipumps (Model 2004, Alzet Corp). NR (Novalix) was administered intraperitoneally at 1000 mg/kg in saline every other day. Mice were housed at the pathogen-free animal facility of the CNIC and CBMSO following the animal care standards of the institution. […]
(§2) Arterial blood pressure (BP) was measured by the mouse-tail cuff method using the automated BP-2000 Blood Pressure Analysis System (Visitech Systems, Apex, NC, USA). […] After training period, BP was measured one day before treatment to determine the baseline BP values in each mouse cohort. BP measurements were recorded in mice located in a tail-cuff restrainer over a warmed surface (37 °C). Fifteen consecutive systolic and diastolic BP measurements were made, and the last 10 readings per mouse were recorded and averaged. For in vivo ultrasound images, the aortic diameter was monitored in isoflurane-anesthetized mice (2% isoflurane) by highfrequency ultrasound with a VEVO 2100 echography device (VisualSonics, Toronto, Canada) at 30-micron resolution. Maximal internal aortic diameters were measured at diastole using VEVO 2100 software, version 1.5.0. […]

Experiment [3] has as its system shFbn1-VSMCs. As to the kind of experiment: DON incubation of Fbn1-silenced primary VSMCs: immunoblot, flow cytometry, qPCR. It is filed as cell-based, murine. The procedure:
Isolation and culture of primary mouse VSMCs were previously described. Tissue was digested with a solution of collagenase and elastase (Worthington Biochem) until a single-cell suspension was obtained. All experiments with primary VSMCs were performed during passages 2-7. Lentiviral transduction was performed in VSMCs over 5 h at a multiplicity of infection = 3. The medium was then replaced with fresh DMEM supplemented with 10% FBS and cells were cultured for five more days, treated with NR for five more days and serum-starved for 16h. The HEK-293T (CRL-1573) and Jurkat (Clone E6-1, TIB-152) cell lines, required for high-titer lentivirus production and lentivirus titration respectively, were purchased from ATCC. The experiments were performed during passages 5-10. All cells tested negative for Mycoplasma.
The GFPT2 and GFP coding sequence was obtained from Origene. Lentiviruses expressing shRNA targeting murine Fbnl, and control shRNA were purchased from Sigma-Aldrich. Pseudo-typed lentiviruses were produced by transient calcium phosphate transfection of HEK-293T cells and concentrated from culture supernatant by ultracentrifugation (2 hours at 128,000xg; Ultraclear Tubes; SW28 rotor and Optima L-100 XP Ultracentrifuge; Beckman). Viruses were suspended in cold sterile PBS and titrated by transduction of Jurkat cells for 48h. Transduction efficiency (GFP-expressing cells and Puromycin resistant-cells) and cell death (propidium iodide staining) were quantified by flow cytometry.
Aortas were extracted after perfusion with 5 ml saline solution, and the adventitia layer was discarded. Liquid nitrogen frozen tissue was homogenized using a cold-mortar and an automatic bead homogenizer (MagNA Lyzer, Roche). Total RNA was isolated with Trizol (Life Technologies). […] The amount of target mRNA in samples was estimated by the 2-CT relative quantification method, using B2M, YWHAZ and PP1A for normalization. Fold ratios were calculated relative to mRNA expression levels from controls. […]

Experiment [4] deals with Fbn1^C1039G/+ mice. As to the kind of experiment: DON by osmotic minipumps in Marfan mouse model: aortic ultrasound, blood pressure, histology, immunoblot, qPCR, RNA-seq. The format is in vivo. The procedure: (§3) Marfan mouse model which harbor a Fbn1^C1039G/+ allele (JAX stock #012885). Wild-type littermates were used as controls for Marfan mice. DON dissolved in saline, (Sigma-Aldrich), at 5 ng* kg^-1 min^-1 and ISRIB (MedChemExpress) at 10mg* kg^-1 min^-1 were infused using subcutaneous osmotic minipumps (Model 2004, Alzet Corp). NR (Novalix) was administered intraperitoneally at 1000 mg/kg in saline every other day. Mice were housed at the pathogen-free animal facility of the CNIC and CBMSO following the animal care standards of the institution. Animal procedures were approved by the CNIC and CBMSO-UAM Ethics Committee and the Madrid regional authorities and conformed with EU Directive 2010/63EU and Recommendation 2007/526/EC regarding the protection of animals used for experimental and other scientific purposes, enforced in Spanish law under Real Decreto 1201/2005.
(§4) Arterial blood pressure (BP) was measured by the mouse-tail cuff method using the automated BP-2000 Blood Pressure Analysis System (Visitech Systems, Apex, NC, USA). Mice were trained for BP measurements every day for five consecutive days. After training period, BP was measured one day before treatment to determine the baseline BP values in each mouse cohort. BP measurements were recorded in mice located in a tail-cuff restrainer over a warmed surface (37 °C). Fifteen consecutive systolic and diastolic BP measurements were made, and the last 10 readings per mouse were recorded and averaged. For in vivo ultrasound images, the aortic diameter was monitored in isoflurane-anesthetized mice (2% isoflurane) by highfrequency ultrasound with a VEVO 2100 echography device (VisualSonics, Toronto, Canada) at 30-micron resolution. Maximal internal aortic diameters were measured at diastole using VEVO 2100 software, version 1.5.0.
Aortas were extracted after perfusion with 5 ml saline solution, and the adventitia layer was discarded. Liquid nitrogen frozen tissue was homogenized using a cold-mortar and an automatic bead homogenizer (MagNA Lyzer, Roche). Total RNA was isolated with Trizol (Life Technologies). Total RNA (1 µg) was first digested with DNAse and reverse-transcribed with Maxima First Strand cDNA Synthesis Kit (ThermoFisher). For analysis of mtDNA levels, total DNA from cells and tissues was extracted with the SurePrep kit (Fisher Scientific) or Trizol respectively, according to the manufacture's guidelines. qPCR reactions were performed in triplicate with SYBR master mix (Promega), according to the manufacturer's guidelines. To examine probe specificity, we conducted a post-amplification melting-curve analysis. For each reaction, only one melting-temperature (Tm) peak was produced. The amount of target mRNA in samples was estimated by the 2-CT relative quantification method, using B2M, YWHAZ and PP1A for normalization. Fold ratios were calculated relative to mRNA expression levels from controls.
Aortas were extracted after perfusion of cold saline solution and the adventitia layer was discarded. Frozen tissue was homogenized, and total RNA was isolated with Trizol ([…]). RNA from Libraries were prepared according to the instructions of the Kit "NEBNext Ultra Directional RNA Library Prep kit for Illumina" (New England Biolabs), following the protocol "Poly(A) mRNA Magnetic Isolation Module". The input yield of total RNA to start the protocol was >300 ng quantified by an Agilent 2100 Bioanalyzer using a RNA 6000 nano LabChip kit. The obtained libraries were validated and quantified by an Agilent 2100 Bioanalyzer using a DNA7500 LabChip kit and an equimolecular pool of libraries was titrated by quantitative PCR using the "Kapa-SYBR FAST qPCR kit forLightCycler480" (Kapa BioSystems) and a reference standard for quantification. After processing on the Illumina HiSeq 2500 instrument, FastQ files were generated containing nucleotide data and quality scores for each position. RNA-seq reads were mapped to the Mus musculus reference genome, GRCm38.p6, using Hisat2 v2.1.0 software. […]

The test system of experiment [5] is Fbn1^+/+ mice. As to the kind of experiment: Glucosamine in drinking water to fuel HBP, wild-type mice: aortic ultrasound, tail-cuff blood pressure, aortic histology. It is filed as in vivo, mouse. The method, then:
as §3, §4
After euthanization by CO2 inhalation, mice were perfused with saline. […] Elastic lamina breaks, defined as interruptions in the elastic fibers, were counted in the entire medial layer of three consecutive cross-sections per mouse, using 4-16 mice per experiment, and the mean number of breaks was calculated. […]

Experiment [6] relates to Fbn1^C1039G/+ mice. The experiment is described as follows: Glucosamine in drinking water to fuel HBP, Marfan mouse model: aortic ultrasound, aortic histology. The format is in vivo. The method, then: as §1, §2
The mark [7] stands for this setting: 24-weeks Fbn1^C1039G/+ mice, DON by osmotic minipumps, after 7 days of treatment.
Setting [8] is: RNA-sequencing on aortas, same cohort as Fig. 3D.

On to `O=C(COc1ccc(Cl)cc1)N[C@H]1CC[C@H](NC(=O)COc2ccc(Cl)cc2)CC1` [ISRIB], for which the “Atf4, Atf6 mRNA levels” value in experiment [1] is listed as “reduces”. Also, in experiment [2], the aortic diameter result is given as “decreases” and the blood pressure result is on record as “decreases”.
`[N-]=[N+]=CC(=O)CC[C@H](N)C(=O)O` [DON, 6-diazo-5-oxo-L-norleucine]: the “IRS signaling through Atf4, Atf6 protein and mRNA expression” value in experiment [3] (ShFbn1-VSMCs, DON for 48h) is reported as “decreased”. Also, the O-GlcNac result in experiment [3] (shFbn1-VSMCs, DON 10nM, 48h, immunoblot and flow cytometry) is recorded as “efficiently reduced”. In addition, in experiment [3] (shFbn1-VSMCs, DON incubation), the “mRNA levels of classical MFS genes such as Tgb1, Fgf2 growth factors, osteopontin (spp1) and colagen1 (Col1a1)” value was “decreased”. For the same molecule, in experiment [4] (setting [7]), the Aortic dilation entry was “completely normalized” and the blood pressure entry is given as “completely normalized”. Moreover, the “O-GlcNac levels and WGA staining in aortic tissue” value in experiment [4] (DON treatment for 28 days) is “reduces”. Besides, the “ISR (p-PERK, p-eIF2α, ATF4 staining and protein levels; Atf4, Atf6, Tgfb2 mRNA) in aortas” value in experiment [4] (MFS-mice, same cohort as Fig. 3D) was “inhibited”. Further, in experiment [4] (setting [8]), the “expression levels of genes related to ER-stress and ISR such as Atf4, Chop, Xbpl, Hsp90b1 and Atf4-dependent genes” value is given as “decreased”; the “expression of conventional MFS-affected genes (TGFβ pathway and ECM-related proteins such as Tgfb3, Cnn2, Serpine1, Thbs1, Pdgfa, Acan, Vcan Sdc4)” value is recorded as “decreased”. The “histologic features of aortic degeneration in MFS, such as medial thickening, elastic fiber fragmentation, GAG and PG deposition” value in experiment [4] (after 28 days of DON-treatment) is given as “restored”. The “TGFB upstream regulator, activation Z-score” value in experiment [4] (ingenuity analysis of aortic RNA-seq, DON treated mice, p-value 2,5710^-11) is -9,913.
Regarding `N[C@H]1C(O)O[C@H](CO)[C@@H](O)[C@@H]1O` (stereo partly shown) [Glucosamine], in experiment [5] (elastin fiber fragmentation and Alcian blue staining after 28 days of treatment), the “histological features of CMD” value is “reproduced”. For the same molecule, the aortic diameter entry is recorded as “significantly increased” in experiment [5] (glucosamine in drinking water (5%), 28 days, effect after 7 days of treatment) and “increased” in experiment [6] (glucosamine in drinking water (5%), compared with control Fbn1^C1039G/+ mice). Also, the “systolic blood pressure (BP)” value in experiment [5] (glucosamine in drinking water (5%), after 7 days of treatment) is “decreased”. In addition, the “aortic architecture such as elastin fiber fragmentation and amorphous matrix accumulation” value in experiment [6] (after 28 days of treatment) is recorded as “worsen”.
